This note sets out measurements from PMC7830863, “Characterization of Cross-Linked Enzyme Aggregates of the Y509E Mutant of a Glycoside Hydrolase Family 52 β-xylosidase from G. stearothermophilus” (Molecules, 2021).

The term Km denotes the concentration of substrate that gives half-maximal velocity.

Molecules are shown by their SMILES.

The assay concerns the target T1, XynB2 (Geobacillus stearothermophilus, UniProt Q09LZ0, Y509E).
T1 construct: recombinant in E. coli C43 from plasmid pJAVI100 (template pJAVI91); semi-purified by heat treatment (45 °C, 30 min) and dialysis; all rows Y509E
The experiment in a line: p-nitrophenol release at […] nm, hyperbolic fit. In kind it is biochemical. Conditions: free semi-purified (heat-treated extract) enzyme; 100 mM citrate phosphate-glycine buffer, pH 6.5, 50 °C.

T1 sequence (Q09LZ0 entry or part of it Y509E): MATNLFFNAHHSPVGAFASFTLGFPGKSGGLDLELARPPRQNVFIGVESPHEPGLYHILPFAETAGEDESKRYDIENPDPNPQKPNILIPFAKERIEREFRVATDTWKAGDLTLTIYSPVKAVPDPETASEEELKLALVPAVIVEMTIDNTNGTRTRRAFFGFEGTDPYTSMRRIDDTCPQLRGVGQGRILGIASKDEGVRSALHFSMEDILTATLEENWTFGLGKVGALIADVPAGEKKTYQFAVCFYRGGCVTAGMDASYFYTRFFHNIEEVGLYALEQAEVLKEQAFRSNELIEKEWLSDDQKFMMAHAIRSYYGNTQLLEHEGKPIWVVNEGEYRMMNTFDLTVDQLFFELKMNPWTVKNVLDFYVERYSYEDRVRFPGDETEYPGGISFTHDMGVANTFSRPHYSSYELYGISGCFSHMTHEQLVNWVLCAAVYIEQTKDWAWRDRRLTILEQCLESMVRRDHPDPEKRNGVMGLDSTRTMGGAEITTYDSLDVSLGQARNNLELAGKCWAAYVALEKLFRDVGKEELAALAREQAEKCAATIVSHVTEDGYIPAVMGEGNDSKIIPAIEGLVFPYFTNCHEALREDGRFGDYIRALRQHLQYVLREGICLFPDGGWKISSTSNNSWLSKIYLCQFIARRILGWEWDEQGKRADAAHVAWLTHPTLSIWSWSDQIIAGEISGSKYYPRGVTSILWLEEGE

For `O=[N+]([O-])c1ccc(O[C@@H]2OC[C@@H](O)[C@H](O)[C@H]2O)cc1` [p-nitrophenyl-β-d-xylopyranoside], the Km was found to be 900 ± 100 µM.
